What was measured:
[1] = biological target: glucose oxidase (Aspergillus niger, UniProt P13006); assay: Enzymatic activity of glucose oxidase in the presence of polyphenol and metal ions at different pH; format: biochemical
Procedure: Enzymatic activity of glucose oxidase was tested in the presence of polyphenol and metal ions from minerals at different pH. Polyphenol is known to be able to bind to enzymes and also form metal coordination with the metal ions.
The enzyme (e.g, glucose oxidase) was combined with different polyphenols (e.g., tannic acid, EGCG) and metal ions from different minerals (e.g., CaCl2, FeCl3, MgCl2, ZnCl2) in buffer solutions having two pH conditions. A buffer having a first pH condition of 3.5 was used to simulate juice buffer. A buffer having a second pH condition of 7 was used to simulate intestinal buffer. The effect of bile salt (an intrinsic compound found in the intestine) on enzymatic activity of glucose oxidase was also tested by incorporating it into the simulated pH 7 intestinal buffer. It should be noted that the enzyme in FIG. 4 is not limited to glucose oxidase, as described in this example. Any appropriate enzymes described elsewherein herein (e.g., inulosucrase, etc.) may be employed using the experimental design in FIG. 4 for sugar reduction.
The enzyme activity of glucose oxidase was measured by measuring the capability of glucose oxidase to convert glucose in different experimental conditions. […] It was hypothesized that at a pH of 7, polyphenol formed metal coordination complexes with metal ions and thus dissociated from the glucose oxidase.
A similar trend in […] was observed when a different polyphenol, EGCE, was used instead of tannic acid.

[2] = biological target: T1, inulosucrase (Lactobacillus gasseri, UniProt D3WYV9); assay: Inhibition of inulosucrase enzymatic activity by tannic acid; format: biochemical
T1 sequence (D3WYV9 37-761): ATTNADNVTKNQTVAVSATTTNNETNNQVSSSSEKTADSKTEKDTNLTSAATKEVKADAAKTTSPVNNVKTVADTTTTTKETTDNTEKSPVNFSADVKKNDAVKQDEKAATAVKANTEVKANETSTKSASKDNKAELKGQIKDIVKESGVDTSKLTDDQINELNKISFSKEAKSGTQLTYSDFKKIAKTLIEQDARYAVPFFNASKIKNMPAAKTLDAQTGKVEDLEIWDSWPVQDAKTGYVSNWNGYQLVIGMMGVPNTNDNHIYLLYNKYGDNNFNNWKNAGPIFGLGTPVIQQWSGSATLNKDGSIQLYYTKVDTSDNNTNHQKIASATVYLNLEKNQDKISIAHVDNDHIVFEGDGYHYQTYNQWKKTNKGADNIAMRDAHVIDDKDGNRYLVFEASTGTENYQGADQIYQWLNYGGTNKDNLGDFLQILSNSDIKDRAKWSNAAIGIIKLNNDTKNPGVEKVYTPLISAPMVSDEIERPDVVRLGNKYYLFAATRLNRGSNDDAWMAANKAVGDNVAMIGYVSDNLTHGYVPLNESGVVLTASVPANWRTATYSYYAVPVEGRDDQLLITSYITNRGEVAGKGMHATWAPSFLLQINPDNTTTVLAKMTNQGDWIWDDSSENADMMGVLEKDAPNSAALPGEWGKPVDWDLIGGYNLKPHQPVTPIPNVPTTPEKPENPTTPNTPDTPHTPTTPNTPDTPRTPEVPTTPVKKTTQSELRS
Procedure: In addition to encapsulating the inulosucrase-nanocellulose complex, an inhibitor (e.g., tannic acid) could also be encapsulated together with the complex. The amount of tannic acid necessary to inhibit enzymatic activity of inulosucrase (while attached to nanocellulose) is shown in FIG. 19. […] The effect of inulosucrase in various food products were studied. Free inulosucrase (not attached to any substrate) was added to a beverage (e.g., Capri San®) and the concentration of various saccharides was measured after 10 minutes at room temperature and 37° C. (FIG. 20A). […] Additional data for other food products (e.g., chocolates) are illustrated in FIGS. 20B-20C.
The effect of tannic acid on enzymatic activity in various food products at different pH conditions was studied. Tannic acid was combined with an enzyme (e.g., inulosucrase) at 1:1 molar ratio to form tannic acid-enzyme (TA-Enz) complex. The TA-Enz complex was prepared at various pH levels (e.g., 3.5, 5.5) and tannic acid concentrations (e.g., 10 mM, 30 mM, 50 mM). The effect of TA-Enz complex in sucrose solution and apple juice was compared to that of free enzyme (enzyme not complexed with tannic acid). Residual sucrose of sucrose solution and apple juice was first monitored in the presence of TA-Enz complexes after an incubation time of 15 minutes.
Residual sucrose of sucrose solution and apple juice was also monitored in the presence of TA-Enz complexes after an incubation time of 24 hours (FIGS. 23A-23B).

[3] = pH 3.5 (simulated juice buffer), polyphenol with Mg^+2 (from MgCl2)
[4] = pH 7 (simulated intestinal buffer), polyphenol with Mg^+2
[5] = pH 7 with bile salt (0.2 wt %), polyphenol with Mg^+2

Sequence of glucose oxidase (P13006 17-605, species assumed): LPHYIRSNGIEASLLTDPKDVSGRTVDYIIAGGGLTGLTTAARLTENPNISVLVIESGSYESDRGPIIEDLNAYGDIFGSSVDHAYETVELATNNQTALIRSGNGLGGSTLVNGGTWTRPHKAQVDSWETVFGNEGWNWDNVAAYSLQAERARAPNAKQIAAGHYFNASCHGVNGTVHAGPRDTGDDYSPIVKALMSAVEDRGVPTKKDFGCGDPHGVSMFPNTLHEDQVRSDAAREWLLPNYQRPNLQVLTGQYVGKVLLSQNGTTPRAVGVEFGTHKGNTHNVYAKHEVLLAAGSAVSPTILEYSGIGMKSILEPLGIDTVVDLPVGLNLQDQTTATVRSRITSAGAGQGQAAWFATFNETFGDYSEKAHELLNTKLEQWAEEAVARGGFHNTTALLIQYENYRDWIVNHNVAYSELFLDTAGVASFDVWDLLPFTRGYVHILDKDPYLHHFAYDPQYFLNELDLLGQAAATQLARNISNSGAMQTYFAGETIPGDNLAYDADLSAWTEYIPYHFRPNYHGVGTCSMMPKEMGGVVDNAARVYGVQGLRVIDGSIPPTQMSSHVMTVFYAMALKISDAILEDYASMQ

| SMILES | enzymatic activity of glucose oxidase [1, 3] | enzymatic activity of glucose oxidase [1, 4] | enzymatic activity of glucose oxidase [1, 5] | concentration at which glucose oxidase activity was significantly inhibited [1] [µM] | inulosucrase activity after polyphenol inhibition ([2]; in the presence of bile salts) | pH-dependent inhibition and reactivation of enzymatic activity ([2]; low pH ˜3.5 vs higher pH ˜6.8) | enzymatic activity of inulosucrase (attached to nanocellulose) ([2]; with increase in tannic acid concentration) |
| --- | --- | --- | --- | --- | --- | --- | --- |
| O=C(O[C@@H]1Cc2c(O)cc(O)cc2O[C@@H]1c1cc(O)c(O)c(O)c1)c1cc(O)c(O)c(O)c1 [EGCE, Epigallocatechin gallate] | prohibited its enzymatic activity | partially recovered | further enzymatic activity was recovered |  |  |  |  |
| O=C(OC[C@H]1O[C@@H](OC(=O)c2cc(O)c(O)c(OC(=O)c3cc(O)c(O)c(O)c3)c2)[C@H](OC(=O)c2cc(O)c(O)c(OC(=O)c3cc(O)c(O)c(O)c3)c2)[C@@H](OC(=O)c2cc(O)c(O)c(OC(=O)c3cc(O)c(O)c(O)c3)c2)[C@@H]1OC(=O)c1cc(O)c(O)c(OC(=O)c2cc(O)c(O)c(O)c2)c1)c1cc(O)c(O)c(OC(=O)c2cc(O)c(O)c(O)c2)c1 [tannic acid] | further inhibited | partially recovered | furthered recovered | 1 | reactivated in the presence of bile salts | repeated inhibition of enzymatic activity at low pH (e.g., pH˜3.5) and reactivation of enzymatic activity at higher pH (e.g., pH˜6.8) | reduction in enzymatic activity |
